This note sets out measurements from patent US20180264124A1, “DRUG COMPLEX” (Shimadzu Corporation, priority 2015, published 2018).

The assay deals with HUVEC. The experiment in a line: HUVEC growth inhibition test (WST-1 assay). The following applies: 25 ng/mL VEGF, 24 hours. (In general: Tetrazolium assays rely on reduction of a dye to a coloured formazan, in cell work by metabolically active cells.)

Ends that are not written are not given here.

In the case of “YT1-Cem: non-VEGF-binding helix-loop-helix peptide YT1-Cys (SEQ ID NO: 18) reacted with CemCH2-S-TNB; control complex (CAELAALEAELAALEGGGGGGGKLAALKAKLAALKA; also: Cem conjugated via the Cys (CemCH2-S-TNB reaction))”, the cell growth inhibition entry is recorded as “did not inhibit cell growth”.
